Results on eight compounds are retold here after ChEMBL document CHEMBL3763116, “Synthesis and evaluation of colletoic acid core derivatives” (Eur J Med Chem, 2016).

The test system of one assay is BJ. Nature of the assay: Cytotoxicity against human BJ cells after 72 hrs by Cell TitreGlo assay. It counts as cell-based.
For assay [1], the target named is T1, 11-beta-hydroxysteroid dehydrogenase type 2 (Homo sapiens, UniProt P80365).
T1 sequence (P80365 whole entry): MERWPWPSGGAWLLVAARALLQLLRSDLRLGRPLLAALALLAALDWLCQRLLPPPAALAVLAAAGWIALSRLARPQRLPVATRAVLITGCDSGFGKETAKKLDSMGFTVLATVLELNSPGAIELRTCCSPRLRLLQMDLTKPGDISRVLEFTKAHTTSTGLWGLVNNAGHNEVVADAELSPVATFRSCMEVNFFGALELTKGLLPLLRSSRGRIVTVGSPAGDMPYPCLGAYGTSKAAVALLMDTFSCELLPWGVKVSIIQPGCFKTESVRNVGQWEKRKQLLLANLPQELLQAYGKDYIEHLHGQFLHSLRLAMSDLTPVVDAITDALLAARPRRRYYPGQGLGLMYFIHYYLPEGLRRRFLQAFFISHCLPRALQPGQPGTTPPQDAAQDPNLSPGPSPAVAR
Nature of the assay: Inhibition of full length human 11beta-HSD2 expressed in HEK293 cells using […] as substrate incubated for 2 hrs by HTRF assay in presence of NAD+. It counts as cell-based.

Assay [2] addresses 11-beta-hydroxysteroid dehydrogenase 1 (Homo sapiens, UniProt P28845). Put plainly: Inhibition of 11beta-HSD1 (unknown origin) using cortisol as substrate assessed as NADPH formation by fluorescent plate reader analysis.

Sequence of 11-beta-hydroxysteroid dehydrogenase 1 (P28845 whole entry): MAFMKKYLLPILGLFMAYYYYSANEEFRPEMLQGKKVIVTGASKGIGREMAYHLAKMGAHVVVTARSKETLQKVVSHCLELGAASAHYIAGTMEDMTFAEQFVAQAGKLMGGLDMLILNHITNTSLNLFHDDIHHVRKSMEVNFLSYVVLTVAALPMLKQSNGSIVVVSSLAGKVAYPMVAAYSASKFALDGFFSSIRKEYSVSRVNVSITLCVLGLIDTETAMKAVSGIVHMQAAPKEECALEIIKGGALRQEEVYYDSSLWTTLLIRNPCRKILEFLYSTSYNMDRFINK

In the assay with BJ, `CC(C)C1=CC[C@H](CN2C(=O)c3ccccc3S2(=O)=O)[C@@]12C=CC(=O)CC2` displayed an EC50 greater than 90 µM. Also, the half-inhibitory concentration (IC50) is greater than 1000 µM in assay [1] and 341 µM in assay [2].

`CC(C)C1=CC[C@H](CSc2nnnn2-c2ccccc2)[C@@]12C=CC(=O)CC2` returned an EC50 with BJ greater than 90 µM. In addition, the concentration for half-maximal inhibition (IC50) in assay [1] and in assay [2] was greater than 1000 µM in each case.

In the assay on BJ, `CC(C)C1=CC[C@H](CSc2ccc3ccccc3c2)[C@@]12C=CC(=O)CC2` registered an EC50 greater than 90 µM. In addition, the IC50 in assay [1] and in assay [2] was greater than 1000 µM throughout.

Consider `CC(C)C1=CC[C@H](Cn2cc(CNC(=O)OC(C)(C)C)nn2)[C@@]12C=CC(=O)CC2`, for which, in the assay with BJ, the EC50 is greater than 90 µM. The IC50 in assay [1] and in assay [2] was greater than 1000 µM in each case.

`CC(C)C1=CC[C@H](Cn2cc(CN(c3ncccn3)S(=O)(=O)c3ccc(N)cc3)nn2)[C@@]12C=CC(=O)CC2` had a 50% effective concentration (EC50) in the assay with BJ greater than 90 µM. Moreover, the IC50 in assay [1] and in assay [2] was greater than 1000 µM in each case.

In the assay with BJ, `CCn1c2ccccc2c2nnc(SC[C@H]3CC=C(C(C)C)[C@]34C=CC(=O)CC4)nc21` had an EC50 greater than 90 µM. The results for the IC50 in assay [1] and in assay [2] were greater than 1000 µM and 33 µM, respectively.

In the case of `COc1ccc(S(=O)(=O)NCc2cn(C[C@H]3CC=C(C(C)C)[C@]34C=CC(=O)CC4)nn2)cc1`, the concentration for a half-maximal effect (EC50) in the assay on BJ was greater than 90 µM. In addition, the IC50 in assay [1] and in assay [2] was greater than 1000 µM throughout.

Regarding `CC(C)C1=CC[C@H](CN2C(=O)c3ccccc3C2=O)[C@@]12C=CC(=O)CC2`, the EC50 in the assay on BJ was greater than 90 µM. The IC50 in assay [1] and in assay [2] was greater than 1000 µM in each case.
